Source: patent US11324803B2, “Methods and compositions for treatment of Gaucher Disease via modulation of C5a receptor” (Children's Hospital Medical Center, priority 2015, dated 2022)

Assays:
C5a receptor 1 = biological target: T1, C5a receptor 1 (Rattus norvegicus, UniProt P97520); details: introduced orally; cited from earlier work
T1 construct: host or cells: rats, in vivo
T1 sequence (P97520 1-352): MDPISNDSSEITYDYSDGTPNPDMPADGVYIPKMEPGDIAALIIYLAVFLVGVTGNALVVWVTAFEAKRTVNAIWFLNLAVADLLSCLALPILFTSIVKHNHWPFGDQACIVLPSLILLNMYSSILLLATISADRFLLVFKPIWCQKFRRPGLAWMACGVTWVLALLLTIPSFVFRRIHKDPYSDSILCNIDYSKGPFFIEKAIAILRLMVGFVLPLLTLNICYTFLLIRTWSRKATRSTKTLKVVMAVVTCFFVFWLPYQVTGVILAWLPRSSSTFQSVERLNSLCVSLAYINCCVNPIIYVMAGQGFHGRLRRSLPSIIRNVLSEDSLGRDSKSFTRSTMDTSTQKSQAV

GCase = biological target: T2, GCase (Mus musculus, UniProt P17439); test: CBE-induced GCase deficiency (pharmacologically-induced Gaucher disease) in mice; assay type: in vivo
T2 construct: endogenous in cells; host or cells: WT, C5aR1-/-, C5aR2-/-, Fcer1g-/- and Fcgr2b-/- mice, in vivo
T2 sequence (P17439 20-515): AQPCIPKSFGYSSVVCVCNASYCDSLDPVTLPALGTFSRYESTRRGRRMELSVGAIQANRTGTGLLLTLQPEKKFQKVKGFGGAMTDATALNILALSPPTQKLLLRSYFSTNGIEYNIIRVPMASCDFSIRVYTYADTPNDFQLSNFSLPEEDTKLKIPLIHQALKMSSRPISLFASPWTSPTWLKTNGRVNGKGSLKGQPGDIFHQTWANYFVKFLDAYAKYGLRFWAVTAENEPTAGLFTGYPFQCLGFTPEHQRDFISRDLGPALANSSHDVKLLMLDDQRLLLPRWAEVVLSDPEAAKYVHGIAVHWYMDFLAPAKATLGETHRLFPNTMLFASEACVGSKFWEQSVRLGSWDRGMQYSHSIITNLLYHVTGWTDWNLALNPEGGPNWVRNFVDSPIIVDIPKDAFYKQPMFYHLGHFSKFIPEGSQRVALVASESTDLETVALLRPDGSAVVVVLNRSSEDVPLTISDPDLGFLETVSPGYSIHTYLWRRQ
Description: Sera from human patients with Gaucher disease (n=10) and healthy volunteers (n=15) were from the freezer and de-identified. Human patients with Gaucher disease were diagnosed at Cincinnati Children's Hospital Medical Center (CCHMC). […] The study was approved by the ethics committee at CCHMC. In vivo C5aR1 deficiency or blockade in 9V/null mice and in a CBE-induced mouse model of Gaucher disease. To assess the impact of genetic or pharmacological targeting of C5aR1 on the inflammatory response in Gaucher disease, WT (n=10) and C5aR1^−/− mice (n=10) were treated with conduritol B epoxide (CBE), which is an irreversible inhibitor of acid β-glucosidase^24. More specifically, both mouse strains were injected intraperitoneally (i.p.) with 100 mg CBE/kg body weight or vehicle (PBS)/day for up to 60 days, which was the termination point of these experiments. After 60 days of the indicated treatment with CBE, immune cells (MΦs, DCs, and T cells) were purified from lung of these mouse strains and used for measurement of GC, costimulatory molecules, and several of the pro-inflammatory cytokines. In additional experiments, WT (n=15) or 9V/null mice (n=15) were injected with 100 μl of the C5aR antagonist A8^Δ71-73 (i.p. 0.5 mg/kg) or vehicle (100 μl, PBS) on five consecutive days. Five days after the final C5aRA treatment, liver, spleen and lung were separated and measured for GC accumulation. Further, DCs and CD4^+ T cells were purified from the lung of the indicated mouse strains and measured for costimulatory molecule expression and the production of pro-inflammatory cytokines. Preparation of tissue cells. Liver, spleen, lung and BM were harvested aseptically. Single cell suspensions from liver and lung were obtained from minced pieces that were treated with Liberase Cl (0.5 mg/mL) and DNase (0.5 mg/mL) in RPMI (45 min, 37° C.). Single cell suspensions from spleen were obtained by grinding and then filtration through a 70-micron cell strainer. […] For BM cells, femurs, tibias and humeri were flushed with sterile phosphate buffered saline (PBS), followed by RBC lysis (155 mM NH4Cl, 10 mM NaHCO3, 0.1 mM EDTA), passage through a strainer. Cells were then pelleted by centrifugation at 350×g. Viable cells were counted using a Neubauer chamber and trypan blue exclusion. DCs, MΦs, and CD4^+ T lymphocytes were purified from single cell suspensions of liver, spleen, and lung using CD11c, CD11b, and CD4 (L3T4) microbeads according to the manufacturer's protocol. The purity of the cells was ˜90%-95%.
To determine levels of IgG antibodies to GC or GS in mice and human Gaucher patients, 10 μg of GC or GS were dissolved in 1 ml of methanol and water to a final concentration of 10 μg/ml. One hundred microliters of this GC solution (1 μg/well) were used to coat a 96 well ELISA plate. In case of GS, plates were first filled with 300 µl of poly L lysine solution (0.1 mg/ml). After 10 minutes, excess solution was removed and plates were thoroughly rinsed with sterile water and allowed to dry for several hours. Such plates were then coated with 100 μl of indicated GS solution (1 μg/well). Both of these GC and GS coated plates were kept overnight at room temperature followed by three washings with PBS containing 1% Tween-20 (PBST). Test sera (100 μl; 1:100) isolated from WT (n=15) and 9V/null mice (n=15), CBE-treated (n=10) and untreated WT mice (n=10), as well as healthy humans (n=15) and untreated Gaucher disease patients (n=10), and control antibodies to GC were loaded into the lipid-coated wells followed by incubation for 1.5 hours at RT. […]

DCs and CD4+ T cells [1] = test: C5a stimulation of DCs and CD4+ T cells: co-stimulatory molecule expression; assay type: cell-based, mouse; details: WT and 9V/null cells, C5a 0, 8, 16, 32 nM, 24 h
Protocol: (§1) To assess the GC-induced C5a influence on alteration in costimulatory molecules, DCs and CD4^+ T cells purified from lung of 9V/null and background matched WT mice (n=15, each group) were stimulated ex vivo in the presence and absence of different concentration of C5a (0,8,16, and 32 nM) for 24 hours at 37° C. DCs and CD4^+ T cells were purified liver, spleen, and lung of CBE-induced chemical model of Gaucher disease in C5aR1^−/− (n=10) and background-matched WT mice (n=10). These DCs were used to perform FACS staining with antibodies to CD40, CD80, and CD86, whereas CD4^+T cells were used to perform FACS staining with antibodies to CD40L and CD69. To assess the GC induced C5a impact on cytokines and chemokines production, DCs and CD4^+T cells (1:2.5 ratio) purified from lung of 9V/null (n=15) and background-matched WT mice (n=15) were co cultured in the presence and absence of C5a (32 nM) for 48 hours in complete medium. In additional experiments, indicated ratios ([…]) of DCs and CD4^+T cells purified from lung of CBE treated and untreated WT and C5aR1^−/− mice (n=10/each group) were co-cultured for 48 hrs in complete medium. Supernatant of these experiments were used to measure […], TNF-α, IL-1β, IL-6, IL-12p40, IL-12p70, IL-23, IL-17A/F and IL-23 by ELISA. […]

DCs and CD4+ T cells [2] = test: DC / CD4+ T cell co-culture with C5a: cytokine production by ELISA; assay type: cell-based, mouse; details: cells from 9V/null mice vs WT, C5a 32 nM, 48 h co-culture
Protocol: as §1

[3] = WT mice treated for 30 days with CBE vs PBS

HC-[OP(D-Cha)WR]
effect in rat models of acute inflammation (C5a receptor 1): beneficial

O[C@H]1[C@H](O)[C@@H](O)[C@@H]2O[C@@H]2[C@@H]1O (racemic) [CBE, conduritol B epoxide]
survival after daily injections of CBE for 60 days (GCase; C5aR1−/− mice, 100 mg CBE/kg/day i.p.): survived
time of death under daily CBE injections (GCase; C5aR2−/− mice, 100 mg CBE/kg/day i.p.): 29 to 35 days
time of death under daily CBE injections (GCase; Fcer1g−/− mice, 100 mg CBE/kg/day i.p.): 29 to 36 days
time of death under daily CBE injections (GCase; Fcgr2b−/− mice, 100 mg CBE/kg/day i.p.): 29 to 36 days
serum levels of C5a (GCase; [3]): elevated
serum levels of IgG2a and IgG2b antibodies to GC (GCase; [3]): significantly elevated
time of death under daily CBE injections (GCase; WT mice, 100 mg CBE/kg/day i.p.): 29 to 35 days

PMX53
effect in rat models of acute inflammation (C5a receptor 1): beneficial

AcF-[OP(D-Cha)WR]
effect in rat models of acute inflammation (C5a receptor 1): beneficial

B1: C5a: small peptide of the complement anaphylatoxin family, cleaved from C5 (protein, UniProt P01031 678-751, looked up)
C5a anaphylatoxin: TLQKKIEEIAAKYKHSVVKKCCYDGACVNNDETCEQRAARISLGPRCIKAFTECCVVASQLRANISHKDMQLGR
modifications: C5a anaphylatoxin
notes: small peptide of the complement anaphylatoxin family, cleaved from C5
expression levels of CD40, CD80, CD86 and CD40L and CD69 (DCs and CD4+ T cells [1]): increased
production of IFN-γ, TNF-α, IL-1β, IL-6, and IL-17 (DCs and CD4+ T cells [2]): dramatically increased
